This note sets out measurements from patent US9434763B2, “Derivatives of pyridinone as inhibitors for tissue transglutaminase” (ZEDIRA GMBH, priority 2012, dated 2016).

Type in all cases: biochemical
In one assay the target is T1, TG1 (transglutaminase 1) (Homo sapiens, UniProt P22735).
T1 construct: purchased Zedira T009
T1 sequence (P22735 1-817): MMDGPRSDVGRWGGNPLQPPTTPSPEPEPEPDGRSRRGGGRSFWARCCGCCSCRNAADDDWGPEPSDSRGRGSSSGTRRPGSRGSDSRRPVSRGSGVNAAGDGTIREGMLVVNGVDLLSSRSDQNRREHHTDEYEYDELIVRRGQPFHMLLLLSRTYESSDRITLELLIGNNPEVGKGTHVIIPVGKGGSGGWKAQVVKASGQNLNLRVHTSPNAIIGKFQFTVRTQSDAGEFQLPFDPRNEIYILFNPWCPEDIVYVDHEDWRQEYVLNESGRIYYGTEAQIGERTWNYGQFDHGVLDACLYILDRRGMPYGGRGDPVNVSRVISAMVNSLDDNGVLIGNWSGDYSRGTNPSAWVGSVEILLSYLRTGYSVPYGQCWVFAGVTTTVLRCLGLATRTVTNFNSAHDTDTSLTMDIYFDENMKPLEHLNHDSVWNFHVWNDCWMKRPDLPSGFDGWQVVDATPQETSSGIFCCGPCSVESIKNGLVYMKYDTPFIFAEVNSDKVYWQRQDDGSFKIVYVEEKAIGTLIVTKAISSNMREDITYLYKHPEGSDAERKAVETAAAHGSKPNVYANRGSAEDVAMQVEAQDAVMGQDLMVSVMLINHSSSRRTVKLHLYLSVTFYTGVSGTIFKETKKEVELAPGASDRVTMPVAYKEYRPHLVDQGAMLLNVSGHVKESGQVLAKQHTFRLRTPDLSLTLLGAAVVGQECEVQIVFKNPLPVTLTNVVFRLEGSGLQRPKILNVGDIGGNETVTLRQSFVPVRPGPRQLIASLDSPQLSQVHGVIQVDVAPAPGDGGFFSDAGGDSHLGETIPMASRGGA
The experiment in a line: Comparative transglutaminase selectivity assay with casein and dansylcadaverine as substrates: TG1. The conditions noted are these: casein as substrate. From the text: (§1) The comparative determination of different transglutaminases to determine the selectivity was made with casein and dansylcadaverine as substrates. Therefore, the kit T036 (Zedira, Darmstadt; Refs: Lorand et al, Anal Biochem, 1971, 44:221-31) as well as transglutaminase products T009 (transglutaminase 1), T012 (transglutaminase 3), T021 (transglutaminase 6) and T027 (plasma transglutaminase, factor XIII) are used. Therefore, two different IC50 values for the compounds are given.
(§2) The evaluation of the resulting enzyme activity is done using the slope of the straight line obtained by the increase in fluorescence.
(§3) To determine the non-inhibited enzyme activity, DMSO instead of inhibitor stock solution is used. IC50 values are determined by plotting the resulting enzyme activity against the logarithm of the inhibitor concentration. IC50 is defined as the concentration of inhibitor resulting in 50% of enzyme activity.
(§4) It should be noted that it was measured here against casein as substrate, which is why other apparent inhibition values (IC50 value) result.

The target in assay [1] is T2, tissue transglutaminase (TG2) (Homo sapiens, UniProt P21980).
T2 construct: purchased Zedira T036 (kit)
T2 sequence (P21980 1-687): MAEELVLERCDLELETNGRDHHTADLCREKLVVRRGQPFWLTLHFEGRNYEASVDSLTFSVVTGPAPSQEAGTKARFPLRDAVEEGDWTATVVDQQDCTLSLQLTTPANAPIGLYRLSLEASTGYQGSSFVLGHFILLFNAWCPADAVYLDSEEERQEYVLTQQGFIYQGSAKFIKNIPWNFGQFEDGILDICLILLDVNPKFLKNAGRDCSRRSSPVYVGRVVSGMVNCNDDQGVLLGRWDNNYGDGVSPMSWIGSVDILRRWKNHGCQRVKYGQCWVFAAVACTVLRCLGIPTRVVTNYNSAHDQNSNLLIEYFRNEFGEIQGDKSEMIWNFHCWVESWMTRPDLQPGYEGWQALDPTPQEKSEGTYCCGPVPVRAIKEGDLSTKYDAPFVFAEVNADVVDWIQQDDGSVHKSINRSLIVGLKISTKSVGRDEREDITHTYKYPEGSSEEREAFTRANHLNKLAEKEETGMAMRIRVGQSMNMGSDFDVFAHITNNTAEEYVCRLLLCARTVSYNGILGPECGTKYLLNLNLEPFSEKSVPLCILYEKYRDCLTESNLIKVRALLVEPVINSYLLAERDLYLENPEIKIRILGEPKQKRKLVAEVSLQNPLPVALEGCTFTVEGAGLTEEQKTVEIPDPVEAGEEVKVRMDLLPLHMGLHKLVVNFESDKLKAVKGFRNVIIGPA
As to the kind of experiment: Comparative transglutaminase selectivity assay with casein and dansylcadaverine as substrates (kit T036): TG2. The conditions noted are these: casein as substrate (apparent IC50).
Excerpt: as §1, §2, §3, §4

A further assay has as its target T3, TG6 (transglutaminase 6) (Homo sapiens, UniProt O95932).
T3 construct: purchased Zedira T021
T3 sequence (O95932 1-706): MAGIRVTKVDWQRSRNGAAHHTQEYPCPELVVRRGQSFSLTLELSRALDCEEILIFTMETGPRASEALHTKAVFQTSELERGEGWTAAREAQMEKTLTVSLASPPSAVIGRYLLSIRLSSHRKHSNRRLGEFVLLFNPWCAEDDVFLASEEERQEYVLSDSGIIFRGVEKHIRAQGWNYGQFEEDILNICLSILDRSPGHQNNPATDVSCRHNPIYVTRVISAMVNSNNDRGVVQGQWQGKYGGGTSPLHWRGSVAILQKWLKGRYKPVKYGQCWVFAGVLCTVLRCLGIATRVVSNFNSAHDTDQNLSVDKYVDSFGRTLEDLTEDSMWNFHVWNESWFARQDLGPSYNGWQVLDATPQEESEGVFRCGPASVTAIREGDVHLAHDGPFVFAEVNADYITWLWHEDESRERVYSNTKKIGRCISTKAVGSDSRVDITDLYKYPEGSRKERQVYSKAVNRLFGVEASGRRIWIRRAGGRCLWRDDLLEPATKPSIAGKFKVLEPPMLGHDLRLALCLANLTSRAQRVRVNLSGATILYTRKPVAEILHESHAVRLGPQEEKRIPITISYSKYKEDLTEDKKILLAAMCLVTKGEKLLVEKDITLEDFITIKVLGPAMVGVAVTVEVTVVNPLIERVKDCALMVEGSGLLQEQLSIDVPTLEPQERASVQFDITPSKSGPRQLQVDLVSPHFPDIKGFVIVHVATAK
The experiment in a line: Comparative transglutaminase selectivity assay with casein and dansylcadaverine as substrates: TG6. To be noted: casein as substrate.
Excerpt: as §1, §2, §3, §4

For orientation: IC50 means the midpoint of a concentration-inhibition curve.

Take `COC(=O)/C=C/CC[C@H](NC(C)=O)C(=O)Nc1cccn(CC(=O)N2CCCC(C)C2)c1=O` (stereo partly drawn) [A64, (6S,E)-Methyl 6-acetamido-7-(1-(2-(3-methylpipendin-1-yl)-2-oxoethyl)-2-oxo-1,2-dihydropyridin-3-ylamino)-7-oxohept-2-enoate]: the IC50 was 122 µM against TG1 (transglutaminase 1), 3 µM in assay [1] and 109 µM at TG6 (transglutaminase 6).

Take `COC(=O)/C=C/CC[C@H](NC(C)=O)C(=O)Nc1cccn(CC(=O)N2CCC(C(F)(F)F)CC2)c1=O` [A65, (S,E)-Methyl 6-acetamido-7-oxo-7-(2-oxo-1-(2-oxo-2-(4-(trifluoromethyl)piperidin-1-yl)ethyl)-1,2-dihydropyridin-3-ylamino)hept-2-enoate]: the IC50 was 120 µM against TG1 (transglutaminase 1), 2.9 µM in assay [1] and 37.7 µM at TG6 (transglutaminase 6).

As to `CCC(CC)CNC(=O)Cn1cccc(NC(=O)[C@H](CC/C=C/C(=O)OC)NC(C)=O)c1=O` [A79, (S,E)-Methyl 6-acetamido-7-(1-(2-(2-ethylbutylamino)-2-oxoethyl)-2-oxo-1,2-dihydropyridin-3-ylamino)-7-oxohept-2-enoate], the IC50 at TG1 (transglutaminase 1) amounted to 80.7 µM; in assay [1] it was 0.397 µM; at TG6 (transglutaminase 6), 47.8 µM.
